In US20080152632A1, “Promoter-reporter cells for determining drug metabolism, drug interactions, and the effects of allotype variation” (Roslin Institute, priority 2005, published 2008):

B1: Oncostatin M: human Oncostatin M, late differentiation factor (protein, UniProt P13725 26-221, looked up)
Oncostatin-M: AAIGSCSKEYRVLLGQLQKQTDLMQDTSRLLDPYIRIQGLDVPKLREHCRERPGAFPSEETLRGLGRRGFLQTLNATLGCVLHRLADLEQRLPKAQDLERSGLNIEDLEKLQMARPNILGLRNNIYCMAQLLDNSDTAEPTKAGRGASQPPTPTPASDAFQRKLEGCRFLHGYHRFMHSVGRVFSKWGESPNRSRR

System: AFP promoter in hepatocyte lineage cells
Assay: AFP-eGFP reporter signaling in hepatocyte lineage cells generated using Activin
Type: cell-based, human
Conditions: H1-LZ-hAFP-eGFP derived cells; factor in HCM medium with HGF and EGF (1 μM dexamethazone from Day 11; 25 ng/mL Oncostatin M from Day 20)
Experimental: The H1-LZ-hAFP-eGFP line of hES cells (Example 2) were expanded in mEF conditioned medium supplemented with 8 ng/mL bFGF on Matrigel™-coated plates. Once they reached 90-95% confluence, the cells were fed and cultured for one day (designated Day 1) with RPMI 1640 containing B27 supplement without vitamin A (GibcoBRL/Invitrogen # 12587-010), 1 mM sodium butyrate (Sigma Cat. no. B5887), and 100 ng/mL Activin A (R&D Systems #338-AC-025), and then for another two days in the same medium except having 0.5 mM sodium butyrate (Stage I). There was substantial cell death, with the remaining cells now having mesenchymal cell morphology, and some forming rosettes.
Starting on Day 4, the cells were fed daily with Knockout DMEM (GibcoBRL/Invitrogen #10829-018) containing 20% Knockout Serum Replacement (GibcoBRL/Invitrogen #10828-028), 2 mM L-glutamine, 1×nonessential amino acids, 0.1 mM β-mercaptoethanol, and 1% DMSO (Stage II). […] Starting on Day 20, the cells were fed on alternate days with HCM Bullet Kit, supplemented with 10 ng/mL human HGF, 10 ng/mL human EGF, and 25 ng/mL human Oncostatin M (Stage V).
In response to the medium components introduced on Day 11, about 60-70% of the cells began expressing eGFP, peaking by Day 19 or 20. Following the change of medium components on […], eGFP expression gradually disappeared.

Row | Molecule | AFP-eGFP reporter expression
1 | C[C@@H]1C[C@H]2[C@@H]3CCC4=CC(=O)C=C[C@]4(C)[C@@]3(F)[C@@H](O)C[C@]2(C)[C@@]1(O)C(=O)CO [dexamethazone] | expressed
2 | B1 | decreased
